From patent US11130759B1, “2-oxoquinazoline derivatives as methionine adenosyltransferase 2A inhibitors” (IDEAYA BIOSCIENCES, INC., priority 2018, dated 2021)
pIC50: −log10 of the molar value.

Biological target: Human MAT2A (Homo sapiens (Human), UniProt P31153)
Experiment: Phosphate Sensor Fluorescence Assay (MAT2A enzyme inhibition)
Assay type: biochemical
Conditions: L-methionine 500 uM, ATP 500 uM
Description: The ability of the compound of present disclosure to inhibit MAT2A enzyme was determined using the Malachite Green or Phosphate Sensor Fluorescence Assay described below.
B. Phosphate Sensor Fluorescence Assay
MAT2A enzyme is incubated with a test compound in DMSO or DMSO and its substrates (L-methionine and ATP) in a microtiter plate. The enzymatic reaction is stopped by the addition of Working Phosphate Sensor Mixture. The plate is analyzed for fluorescence at 450 nm.
Assay Buffer: 50 mM Tris, pH 7.5/50 mM KCl/10 mM MgCl2/0.01% Brij-35/1 mM DTT/0.1% BGG/40 nM PNP/6 uM 7-MEG
L-methionine: 500 uM before the addition of Working Phosphate Sensor Mixture
ATP: 500 uM before the addition of Working Phosphate Sensor Mixture
Test compounds or DMSO were added to the appropriate well suing D300e digital dispenser. 5 μl/well of Assay Buffer was added to the wells corresponding to the negative control and 5 μl/well of MAT2A was added to all the wells except for those corresponding to the negative control. After incubating the plate at room temperature for 15 minutes, 5 μl/well of the 1 mM L-methionine/1 mM ATP mixture was added to all wells. The plate was centrifuged at 1000 rpm for 1 minute and then incubated at room temperature for 1 hour. 5 μl of the Working Phosphate Sensor Mixture was added to all wells and the plate was centrifuged at 1000 rpm for 1 minute. The plate was read for fluorescence at 450 nm after exciting at 430 nm.
Percent inhibition was calculated in Chemical and Biological Information System (CBIS), (ChemInnovation Software Inc.). Curves were fitted by CBIS as % inhibition vs. log [compound concentration] using a 4-parameter inhibition model. Fit=(A+((B−A)/(1+((C/x)^D)))) Res=(y−fit)

Human MAT2A, sequence (P31153 whole entry): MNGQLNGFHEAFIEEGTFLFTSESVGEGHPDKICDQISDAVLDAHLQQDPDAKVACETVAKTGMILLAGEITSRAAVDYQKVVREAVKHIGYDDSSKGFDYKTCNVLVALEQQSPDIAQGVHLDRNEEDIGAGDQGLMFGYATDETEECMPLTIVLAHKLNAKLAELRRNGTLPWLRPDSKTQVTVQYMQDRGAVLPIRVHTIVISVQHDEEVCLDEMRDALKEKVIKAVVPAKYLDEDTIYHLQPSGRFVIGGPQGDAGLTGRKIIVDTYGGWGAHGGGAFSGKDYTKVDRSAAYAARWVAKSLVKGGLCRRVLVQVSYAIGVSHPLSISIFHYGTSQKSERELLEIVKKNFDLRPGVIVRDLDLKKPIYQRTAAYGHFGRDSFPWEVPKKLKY

Row | pIC50 (numeric bound) | pIC50 (class symbols) | Compound
1 | < 5.00 | – | 8-chloro-1-(2-chlorophenyl)-7- (trifluoro-methyl)pyrido[2,3- d]pyrimidine-2,4(1H,3H)-dione-1 [Example 360]
2 | – | > 6.70 | CCCc1ccc2c(N(C)C)nc(=O)n(-c3ccccc3)c2c1 [compound 98]
3 | – | > 6.70 | O=c1nc(N2CC[C@@H](O)C2)c2ccc(Cl)cc2n1-c1ccccc1O [compound 152]
